The target in one assay is PKMYT1 (MYT1) (Homo sapiens (Human), UniProt Q99640). As to the kind of experiment: PKMYT1 HTRF Assay. Format: binding. As to conditions: Tracer 178, GST-Tb; compound 10 μM to 0.5 nM. The protocol: Example A: PKMYT1 HTRF Assay
(§1) Compound serial dilution is performed by Echo, and the final concentrations vary from 10 μM to 0.5 nM. This was filled by the addition of 5 μL/well of Enzyme solution to the assay plate containing the compound. The plate was centrifuged at 1000 rpm for 1 minute, and incubate 15 minutes at 25° C. Then 5 μL/well of tracer solution (Tracer 178) was added to initiate the reaction, and incubate for 60 minutes at 25° C. Next 5 μL GST-Tb was added into the assay plate, the plate was centrifuged at 1000 rpm for 1 minute, and incubate for 15 minutes at 25° C. The assay plate was read on Envision.
Background: In TR-FRET formats the signal depends on donor and acceptor labels being close together.

The target in another assay is WEE1 (Homo sapiens (Human), UniProt P30291). Nature of the assay: WEE1 ADP-Glo Assay. Format: biochemical. As to conditions: compound 10 μM to 0.5 nM. The protocol: Example B: WEE1 ADP-Glo Assay
WEE1, sequence (P30291 whole entry): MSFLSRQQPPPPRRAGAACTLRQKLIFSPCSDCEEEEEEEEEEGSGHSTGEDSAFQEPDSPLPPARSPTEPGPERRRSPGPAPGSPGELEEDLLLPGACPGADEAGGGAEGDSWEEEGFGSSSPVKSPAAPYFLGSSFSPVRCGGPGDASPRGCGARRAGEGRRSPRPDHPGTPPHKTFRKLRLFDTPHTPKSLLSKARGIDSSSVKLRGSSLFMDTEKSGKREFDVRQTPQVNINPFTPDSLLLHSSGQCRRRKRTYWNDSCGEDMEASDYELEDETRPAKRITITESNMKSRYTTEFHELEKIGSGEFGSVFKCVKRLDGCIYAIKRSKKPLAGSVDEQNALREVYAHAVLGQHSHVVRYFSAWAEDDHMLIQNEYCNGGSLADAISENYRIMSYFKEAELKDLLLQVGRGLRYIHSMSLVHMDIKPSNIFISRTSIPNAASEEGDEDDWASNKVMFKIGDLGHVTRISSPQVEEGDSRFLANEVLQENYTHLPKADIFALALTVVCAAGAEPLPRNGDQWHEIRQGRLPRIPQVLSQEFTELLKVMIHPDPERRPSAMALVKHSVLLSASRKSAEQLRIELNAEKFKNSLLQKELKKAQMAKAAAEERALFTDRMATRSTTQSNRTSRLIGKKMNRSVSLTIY
as §1, with “of substrate” for “of tracer”, “solution” for “solution (Tracer 178)”, “Next 10” for “Next 5”, “μL kinase detection reagent” for “μL GST-Tb”, “for 60” for “for 15”, “on Envision for US LUM as RLU.” for “on Envision.”

Data on three molecules can be found in patent US20250145624A1, “MEMBRANE-ASSOCIATED TYROSINE- AND THREONINE-SPECIFIC CDC2-INHIBITORY KINASE (PKMYT1) INHIBITORS AND USES THEREOF” (Insilico Medicine IP Limited, priority 2022, published 2025).

PKMYT1 (MYT1), sequence (Q99640 whole entry): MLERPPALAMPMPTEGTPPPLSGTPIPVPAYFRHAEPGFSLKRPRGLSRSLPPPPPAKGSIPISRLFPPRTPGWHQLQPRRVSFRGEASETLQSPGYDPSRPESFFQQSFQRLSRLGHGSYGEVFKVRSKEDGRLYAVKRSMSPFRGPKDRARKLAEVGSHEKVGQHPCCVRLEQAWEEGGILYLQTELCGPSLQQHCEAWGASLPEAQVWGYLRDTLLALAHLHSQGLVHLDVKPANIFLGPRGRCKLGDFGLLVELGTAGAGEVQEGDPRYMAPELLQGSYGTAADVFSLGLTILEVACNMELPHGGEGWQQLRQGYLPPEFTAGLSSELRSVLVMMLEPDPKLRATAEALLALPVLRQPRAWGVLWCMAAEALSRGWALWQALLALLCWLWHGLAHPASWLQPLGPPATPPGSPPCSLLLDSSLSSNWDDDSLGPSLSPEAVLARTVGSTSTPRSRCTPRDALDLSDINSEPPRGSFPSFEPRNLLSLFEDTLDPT

Molecule `Cc1nc2c3c(c(N)n(-c4c(C)ccc(O)c4C)c3n1)C(=O)NCC2` [Example 3, 1-amino-2-(3-hydroxy-2,6-dimethylphenyl)-4-methyl-2,6,7,8-tetrahydro-9H-2,3,5,8-tetraazabenzo[cd]azulen-9-one] came in with an IC50 on PKMYT1 (MYT1) of less than 10 nM.
With `Cc1ccc(O)c(C)c1-n1c(N)c2c3c(c(C)cnc31)CCNC2=O` [Example 1, 1-amino-2-(3-hydroxy-2,6-dimethylphenyl)-5-methyl-2,6,7,8-tetrahydro-9H-2,3,8-triazabenzo[cd]azulen-9-one], the half-inhibitory concentration (IC50) on WEE1 was 1210 nM; against PKMYT1 (MYT1) it was less than 10 nM.
For `Cc1ccc(O)c(C)c1-n1c(N)c2c3c(c(C)ncc31)CCNC2=O` [Example 2, 1-amino-2-(3-hydroxy-2,6-dimethylphenyl)-5-methyl-2,6,7,8-tetrahydro-9H-2,4,8-triazabenzo[cd]azulen-9-one], in that order: more than 10000 nM and 10 to 50 nM.

One may read the IC50 as the concentration that gives 50% inhibition. A higher IC50 goes with weaker potency in that assay.
